These results are taken from patent US20090004145A1, “COMPOSITIONS AND METHODS INVOLVING GENE THERAPY AND PROTEASOME MODULATION” (priority 2006, published 2009).

A word on the pIC50: it is the IC50 on a negative log10 scale, so that one unit is a factor of ten. A higher pIC50 goes with a low IC50.

The conditions of data set [1]: cited from earlier work.
For data set [2] the following is noted: mice; cited from earlier work.
The conditions of data set [3]: cited from earlier work. The source holds these as a separate data set.
The test system of data set [4] is multiple myeloma. To be noted: oral administration; cited from earlier work.
For data set [5] the following is noted: humans, intravenous administration; cited from earlier work.
For data set [6], the system named is Hodgkin's disease. To be noted: cited from earlier work.
For data set [7] the following is noted: in vivo; cited from earlier work.
For data set [8] the following is noted: usual clinical doses; cited from earlier work.
For data set [9] the following is noted: in vivo; cited from earlier work. This is another data set of the same source.
Data set [10] deals with 2008 cells. In words: Tumor cell killing, trypan blue assay. Format: cell-based, human. The conditions noted are these: CDDP 25 μM, vector 3000 vp/cell, 72 h. The protocol:
FIG. 3. Ad-mda7 plus CDDP treatment sensitizes CDDP-resistant tumor cells. CDDP-resistant (2008/C*13 R) and sensitive (2008) ovarian tumor cells were plated in six-well plates and treated with PBS, CDDP (25 μM) Ad-luc, Ad-mda7 (3000 vp/cell), Ad-mda7 plus CDDP or Ad-luc plus CDDP. Treatment schedule was as follows: pretreatment with CDDP for 1 h, washed with PBS to remove any residual CDDP and then infect with Ad-mda7 for 3 h in serum free medium followed by replenishment of complete medium. Cells were harvested at 72 h after treatment and number of dead cells counted by the trypan blue assay.
FIG. 8. CDDP-resistant tumor cells are more sensitive to Ad-mda7. […] Cells were harvested on day 3 and day 5 after treatment and number of dead cells counted by the trypan blue assay and analyzed for apoptotic markers by western blotting. […]
Next, CDDP-resistant (2008/C*13 R) and sensitive (2008) ovarian tumor cells were plated in six-well plates and treated with PBS, CDDP (25 μM) Ad-luc, Ad-mda7 (3000 vp/cell), Ad-mda7 plus CDDP or Ad-luc plus CDDP. […] Cells were harvested at 72 h after treatment and number of dead cells counted by the trypan blue assay.
CDDP-Resistant Tumor Cells are More Sensitive to Ad-mda7. […] Cells were harvested on day 3 and day 5 after treatment and number of dead cells counted by the trypan blue assay and analyzed for apoptotic markers by western blotting. […]

Data set [11] relates to 2008 cells. In words: XTT cell viability assay of CDDP-treated ovarian cancer cell lines. To be noted: CDDP 1 h, then 72 h incubation. Format: cell-based, human. The protocol:
(§1) FIG. 1. Determination of IC50 values for CDDP-Treated Ovarian Cancer Cell Lines. Human ovarian tumor (2008 and 2008/C*13R) tumor cells (2×10^3) seeded in 96-well plates were treated with various doses of CDDP (0, 10, 20, 30, 60, 80, 100 μM). After 1 h of treatment, CDDP containing medium was removed and fresh medium added to the wells. Cells were incubated for 72 h following which were subjected to XTT assay to determine cell viability. Untreated cells served as controls.
(§2) Determination of IC50 values for CDDP-Treated Ovarian Cancer Cell Lines. Human ovarian tumor (2008 and 2008/C*13R) tumor cells (2×10^3) seeded in 96-well plates were treated with various doses of CDDP (0, 10, 20, 30, 60, 80, 100 μM). After 1 h of treatment, CDDP containing medium was removed and fresh medium added to the wells. Cells were incubated for 72 h following which were subjected to XTT assay to determine cell viability. Untreated cells served as controls. […] (FIG. 1)
(Tetrazolium assays rely on reduction of a dye to a coloured formazan, in cell work by metabolically active cells.)

Data set [12] relates to 2008/C*13R cells. Described as above. Type of data set: cell-based, human. To be noted: CDDP 1 h, then 72 h incubation. The protocol:
as §1, §2

The conditions of data set [13]: 15 minutes after intravenous administration; cited from earlier work.
The test system of data set [14] is chronic myelogenous leukemia. The conditions noted are these: adults with previously untreated chronic myelogenous leukemia; cited from earlier work.

pIC50: −log10 of the molar value. In brackets after ≈: the same amount, converted by molar mass. Where two headings read alike, the source gives them in different places. *1 amine or outer side, *2 acyl side, *3 side chain or, on linkers, in order; H or OH if unused. Where a SMILES comes first, the peptide text is derived from it. Bridges are numbered along the chain shown (N, C = ends). Roman numbers before positions name the chains, in order. [ ]: non-standard residue; d: D form. Actinocin(9to1) = Cc1c2oc3c(C)ccc(C(=O)[*:1])c3nc-2c(C(=O)[*:2])c(N)c1=O; NMeV = CN[C@H](C(=O)O)C(C)C; Sar = CNCC(=O)O Where only a bound is given, the exact number is not on record here.

Bleomycin: in data set [1] (humans), the “administered dose recovered in the urine as active bleomycin” value is 60% to 70. Also, the “plasma or serum terminal elimination half-life” value in data set [1] (patients with creatinine clearance <35 mL per minute, as clearance decreases) is listed as “increases exponentially”. In data set [2], the “concentrations in hematopoietic tissue / bone marrow” value is “low concentrations”; the “concentrations in skin, lungs, kidneys, peritoneum and lymphatics” value is reported as “high concentrations”. Besides, in data set [3] (bleomycin), the solubility in water entry is on record as “freely soluble in water”.
With `N[C@@H](Cc1ccc(N(CCCl)CCCl)cc1)C(=O)O` [Melphalan, 4-[bis(2-chloroethyl)amino]-L-phenylalanine], the “patients showing a favorable response” value in data set [4] is “about one third to one half”. Moreover, the solubility in water result in data set [3] (melphalan) is “insoluble in water”.
Take `CO[C@@]12[C@H](COC(N)=O)C3=C(C(=O)C(C)=C(N)C3=O)N1C[C@@H]1N[C@@H]12` [Mitomycin]: the “clearance from the serum” value in data set [5] is listed as “rapidly cleared”. The heat stability entry in data set [3] (mitomycin) is on record as “heat stable”.
For the molecule `CC[C@]1(O)C[C@@H]2CN(CCc3c([nH]c4ccccc34)[C@@](C(=O)OC)(c3cc4c(cc3OC)N(C)[C@H]3[C@@](O)(C(=O)OC)[C@H](OC(C)=O)[C@]5(CC)C=CCN6CC[C@]43[C@@H]65)C2)C1` [Vinblastine], the “cases with significant improvement” value in [6] was 50 to 90%.
For `Cc1c2oc3c(C)ccc(C(=O)N[C@@H]4C(=O)N[C@H](C(C)C)C(=O)N5CCC[C@H]5C(=O)N(C)CC(=O)N(C)[C@@H](C(C)C)C(=O)O[C@@H]4C)c3nc-2c(C(=O)N[C@@H]2C(=O)N[C@H](C(C)C)C(=O)N3CCC[C@H]3C(=O)N(C)CC(=O)N(C)[C@@H](C(C)C)C(=O)O[C@@H]2C)c(N)c1=O` [Actinomycin D] (I: T[dV]P[Sar][NMeV] / II: T[dV]P[Sar][NMeV]; ester I:1-I:C, II:1-II:C; linker I:N-II:N via Actinocin(9to1)), the “passage of the blood-brain barrier” value in [7] is “does not pass the blood-brain barrier”.
Regarding `CC[C@]1(O)C[C@H]2CN(CCc3c([nH]c4ccccc34)[C@@](C(=O)OC)(c3cc4c(cc3OC)N(C=O)[C@H]3[C@@](O)(C(=O)OC)[C@H](OC(C)=O)[C@]5(CC)C=CCN6CC[C@]43[C@@H]65)C2)C1` [Vincristine], the “peak concentration in plasma” value in [8] is “approximately 0.4 mM”.
`[NH2][Pt]([NH2])([Cl])[Cl]` [CDDP, Cisplatin]: in data set [9], the oral absorption result is recorded as “not absorbed orally”. Also, in data set [10], the percent killing entry is given as “similar”. For the same molecule, the pIC50 was 4.52 in data set [11] and 3.84 in data set [12].
Turning to `CC[C@@]1(O)C(=O)OCc2c1cc1n(c2=O)Cc2cc3ccccc3nc2-1` [Camptothecin], the “solubility (clear yellow solution)” value in data set [3] (camptothecin in DMSO 1N sodium hydroxide) is 50 mg/mL (≈ 144 mM). Besides, in data set [3] (camptothecin, 2-8° C., dry, airtight, light-resistant), the storage stability entry was “at least two”. The water solubility result in [3] (camptothecin) was “poor water-solubility”.
For `O=NN(CCCl)C(=O)NCCCl` [Carmustine, 1,3bis-(2-chloroethyl)-1-nitrosourea], the solubility in water entry in data set [3] (carmustine) is on record as “poorly soluble”.
As to `O=NN(CCCl)C(=O)NC1CCCCC1` [Lomustine, 1-(2-chloro-ethyl)-3-cyclohexyl-1 nitrosourea], in data set [13], the tissue levels entry is listed as “comparable to plasma levels”. Further, in [3] (lomustine), the “ionization at a physiological pH” value is reported as “relatively unionized”, the “solubility in 10% ethanol” value is 0.05 mg per ml, the “solubility in absolute alcohol” value is reported as 70 mg per ml and the solubility in water is reported as below 0.05 mg per ml.
`CS(=O)(=O)OCCCCOS(C)(=O)=O` [Busulfan, 1,4-butanediol dimethanesulfonate]: in data set [14], the “patients obtaining hematologic remission” value was “Approximately 90%”.
